Source: patent US20050261264A1, “Rare-earth ternary complex” (priority 2000, published 2005)

Legend:
Assay type in all cases: physicochemical
[1] = Luminescence quantum yield and luminescence intensity in PMMA polymer matrix composition; settings: PMMA rod; for Luminescence quantum yield: rare earth ion 0.7 wt %
Protocol: (§1) The intensity of luminescence and the luminescence quantum yield, the quotient of dividing the number of photons emitted from a sample by the number of photons absorbed into the sample, were measured with an SS-25 from JASCO Corporation.
A 1 mL quantity of refined anhydrous methyl methacrylate (MMA), 0.5 mg of AIBN, and 148 mg (0.7 wt %) as the rare earth ion concentration) of the Eu (PMS)3 (TPPO)8 obtained in Example 1 were mixed, the mixture was transferred to a Pyrex tube, and the inside of the tube was deaerated and then sealed. By reacting for 5 hours at 60° C., the polymerization of MMA was carried out. The resulting PMMA containing Eu(PMS)3 (TPPO)8 was taken out of the Pyrex tube, and a rod-shaped polymer matrix composition was obtained.
(§2) The polymer matrix compositions prepared in Examples 17 to 19 and Comparative Example 11 were measured for luminescence intensity at the respective maximum luminescence wavelengths. The relative luminescence intensity in Examples 17 to 19: (luminescence intensity in each of Examples 17 to 19)/(luminescence intensity in Comparative Example 11) was calculated, letting 1 be the luminescence intensity in Comparative Example 11 (rare earth complex in which the ligand Z was not coordinated).
A rod-shaped polymer matrix composition containing […] was obtained in the same manner as in Example 17, except that 148 mg (rare earth ion concentration: 0.7 wt %) of the Nd(PMS)3 (TPPO)8 obtained in Example 2 was used instead of Eu(PMS)3 (TPPO)8.
as §2, with “20 and 21” for “17 to 19”, “12” for “11”, “20 and 21:” for “17 to 19:”, “20 and 21)/(luminescence” for “17 to 19)/(luminescence”, “12)” for “11)”

[2] = Number of moles of bound water per mole of complex (TG-DTA); settings: for Bound water (number of moles of bound water per mole of complex): Table 1, dried samples for the ternary complexes
Protocol: The number of moles of bound water per mole of complex was measured using a TG-DTA 2000 from MAC Science.
A 20 g quantity of Eu(PMS)3 was added to 100 mL of isopropanol, then 43 g ([…] the molar amount of the Eu(PMS)3) of triphenylphosphine oxide (hereinafter referred to as TPPO) was added, and the system was refluxed for 3 hours, and then gradually cooled. The resulting white powder was filtered off. The white powder thus obtained was washed with hot n-hexane, and recrystallized with water-methanol to obtain 44 g of Eu(PMS)3(TPPO)8 in the form of white acicular crystals (yield: 85%). The TG-DTA was measured for these crystals, and it was found from the weight reduction at 100° C. that the number of moles of bound water per mole of complex was 2.93. The IR, NMR, UV absorption characteristics, and elemental analysis results for the obtained Eu(PMS)3(TPPO)8(H2O)2.93 are given below.
Eu(PMS)3(TPPO)8(H2O)2.93 obtained by the above synthesis method was dried in vacuo for 3 hours at 140° C. and a reduced pressure of […]. TG-DTA measurement for the resulting white powder was carried out to obtain a weight reduction at 100° C. It was found from the obtained value that the number of moles of bound water per mole of complex was 0.18.

[3] = Miscibility with solvents, visual evaluation at 5 wt %; parameters: key: ⊚: dissolves at room temperature; ◯: dissolves when heated for 5 minutes at 40° C.; Δ: dissolves under heating, but cooling precipitates crystals; X: does not dissolve; settings: complex added at 5 wt %
Protocol: (§3) The miscibility of the rare earth complex with various media was evaluated as follows.
1) Miscibility with Solvents

[4] = Luminescence quantum yield and luminescence intensity in solution
Protocol: as §1
The luminescence quantum yield of an acetonitrile solution of the Eu(PMS)3(TPPO)8 obtained in Example 1 (europium ion concentration: 0.05 mol/L) was measured (excitation wavelength: 465 nm, maximum luminescence wavelength: 612 nm, luminescence wavelength used in measurement: 612 nm).
The solutions prepared in Examples 12 to 14 and Comparative Examples 7 to 9 and Comparative Example B were measured for luminescence intensity at the respective maximum luminescence wavelengths.
The relative luminescence intensity of the solutions used in Examples 12 to 14 and Comparative Example B: (luminescence intensity in each of Examples 12 to 14)/(luminescence intensity in Comparative Example 7) was calculated, letting 1 be the luminescence intensity in Comparative Example 7 (solution of a rare earth complex in which the ligand Z was not coordinated).
Similarly, the relative luminescence intensity in Comparative Example 9: (luminescence intensity in Comparative Example 9)/(luminescence intensity in Comparative Example 8) was calculated, letting 1 be the luminescence intensity in Comparative Example 8 (solution of a known β-diketone-type of rare earth complex in which the ligand Z was not coordinated). The relative luminescence intensity of the solution used in Comparative Example B was 1.6 times.
The luminescence quantum yield of an acetone-d6 solution of the Nd(PMS)3(TPPO)8 obtained in Example 2 (neodymium ion concentration: 0.05 mol/L) was measured (excitation wavelength: 585 nm, maximum luminescence wavelength: 1064 nm, luminescence wavelength used in measurement: 1064 nm).
The solutions prepared in Examples 15 and 16 and Comparative Examples 10 were measured for luminescence intensity at the respective maximum luminescence wavelengths. The relative luminescence intensity in Examples 15 and 16: (luminescence intensity in each of Examples 15 and 16)/(luminescence intensity in Comparative Example 10) was calculated, letting 1 be the luminescence intensity in Comparative Example 10 (rare earth complex in which the ligand Z was not coordinated).

[5] = Miscibility with a polymer matrix, visual evaluation; parameters: key to Miscibility, PMMA: ⊚: dissolves up to 30 wt %; ◯: dissolves up to 5 wt %; Δ: disperses up to 5 wt %, but there is turbidity; X: repelled at the polymer surface
Protocol: as §3
2) Miscibility with a Polymer Matrix
The rare earth complex serving as the sample was added in the concentrations listed with the evaluation criteria below relative to various media, and the miscibility was visually evaluated according to the following criteria. • ⊚: dissolves up to 30 wt % • ◯: dissolves up to 5 wt % • Δ: disperses up to 5 wt %, but there is turbidity • X: repelled at the polymer surface

[6] = after drying in vacuo at 140° C.
[7] = before drying (crystals as obtained), weight reduction at 100° C.
[8] = Nd 0.7 wt %, relative to Nd(PMS)3 (Comparative Example 12) = 1
[9] = excitation 585 nm, luminescence 1064 nm
[10] = acetone-d6 solution, Nd 0.05 mol/L, relative to Nd(PMS)3 (Comparative Example 10) = 1
[11] = acetone-d6 solution, neodymium ion 0.05 mol/L, excitation 585 nm, luminescence 1064 nm

SMILES	Relative luminescence intensity ([1]; Eu 0.7 wt %, relative to Eu(PMS)3 (Comparative Example 11) = 1)	Luminescence quantum yield ([1]; excitation 465 nm, luminescence 612 nm) [%]	Bound water (number of moles of bound water per mole of complex) [2]	Number of moles of bound water per mole of complex [2, 6]	Number of moles of bound water per mole of complex [2, 7]	Miscibility, Acetone [3]	Miscibility, Chloroform [3]	Miscibility, Toluene [3]	Miscibility, Water [3]	Relative luminescence intensity ([4]; acetonitrile solution, Eu 0.05 mol/L, relative to Eu(PMS)3 (Comparative Example 7) = 1)	Luminescence quantum yield ([4]; acetonitrile solution, europium ion 0.05 mol/L, excitation 465 nm, luminescence 612 nm) [%]	Miscibility, Epoxy resin [5]	Miscibility, Nafion [5]	Miscibility, PMMA [5]	Relative luminescence intensity [1, 8]	Luminescence quantum yield [1, 9] [%]	Relative luminescence intensity [4, 10]	Luminescence quantum yield [4, 11] [%]
O=P(c1ccccc1)(c1ccccc1)c1ccccc1.O=P(c1ccccc1)(c1ccccc1)c1ccccc1.O=P(c1ccccc1)(c1ccccc1)c1ccccc1.O=P(c1ccccc1)(c1ccccc1)c1ccccc1.O=P(c1ccccc1)(c1ccccc1)c1ccccc1.O=P(c1ccccc1)(c1ccccc1)c1ccccc1.O=P(c1ccccc1)(c1ccccc1)c1ccccc1.O=P(c1ccccc1)(c1ccccc1)c1ccccc1.O=S(=O)([N-]S(=O)(=O)C(F)(F)F)C(F)(F)F.O=S(=O)([N-]S(=O)(=O)C(F)(F)F)C(F)(F)F.O=S(=O)([N-]S(=O)(=O)C(F)(F)F)C(F)(F)F.[Eu+3] [Eu(PMS)3(TPPO)8]	15466	19.0	0.18	0.18	2.93	⊚	⊚	◯	X	45.1	5.6	◯ (dissolves up to 5 wt %)	◯ (dissolves up to 5 wt %)	◯ (dissolves up to 5 wt %)				
O=S(=O)([N-]S(=O)(=O)C(F)(F)F)C(F)(F)F.O=S(=O)([N-]S(=O)(=O)C(F)(F)F)C(F)(F)F.O=S(=O)([N-]S(=O)(=O)C(F)(F)F)C(F)(F)F.O=S(c1ccccc1)c1ccccc1.O=S(c1ccccc1)c1ccccc1.O=S(c1ccccc1)c1ccccc1.O=S(c1ccccc1)c1ccccc1.O=S(c1ccccc1)c1ccccc1.O=S(c1ccccc1)c1ccccc1.O=S(c1ccccc1)c1ccccc1.O=S(c1ccccc1)c1ccccc1.[Nd+3] [Nd(PMS)3(DPSO)8]			0.00			⊚	◯	◯	X			◯ (dissolves up to 5 wt %)	◯ (dissolves up to 5 wt %)	◯ (dissolves up to 5 wt %)	90	0.9	1.6	1.3
O=P(c1ccccc1)(c1ccccc1)c1ccccc1.O=P(c1ccccc1)(c1ccccc1)c1ccccc1.O=P(c1ccccc1)(c1ccccc1)c1ccccc1.O=P(c1ccccc1)(c1ccccc1)c1ccccc1.O=P(c1ccccc1)(c1ccccc1)c1ccccc1.O=P(c1ccccc1)(c1ccccc1)c1ccccc1.O=P(c1ccccc1)(c1ccccc1)c1ccccc1.O=P(c1ccccc1)(c1ccccc1)c1ccccc1.O=S(=O)([N-]S(=O)(=O)C(F)(F)F)C(F)(F)F.O=S(=O)([N-]S(=O)(=O)C(F)(F)F)C(F)(F)F.O=S(=O)([N-]S(=O)(=O)C(F)(F)F)C(F)(F)F.[Nd+3] [Nd(PMS)3(TPPO)8]			0.24	0.24	3.41	⊚	⊚	◯	X			◯ (dissolves up to 5 wt %)	◯ (dissolves up to 5 wt %)	◯ (dissolves up to 5 wt %)	80	0.8	1.4	1.1
O=S(=O)([N-]S(=O)(=O)C(F)(F)F)C(F)(F)F.O=S(=O)([N-]S(=O)(=O)C(F)(F)F)C(F)(F)F.O=S(=O)([N-]S(=O)(=O)C(F)(F)F)C(F)(F)F.[Nd+3] [Nd(PMS)3, reference compound]			2.32			⊚	X	X	⊚			Δ (disperses up to 5 wt %, but there is turbidity)	Δ (disperses up to 5 wt %, but there is turbidity)	X	1.0	<0.1	1.0	0.8
